This note sets out measurements from US8048874B2, “Beta-lactamyl phenylalanine, cysteine, and serine vasopressin antagonists” (Azevan Pharmaceuticals, Inc., priority 2005, dated 2011).

One assay has as its target T1, human V1b receptors (Homo sapiens, UniProt P47901).
T1 construct: expressed in transfected cells
T1 sequence (P47901 1-424): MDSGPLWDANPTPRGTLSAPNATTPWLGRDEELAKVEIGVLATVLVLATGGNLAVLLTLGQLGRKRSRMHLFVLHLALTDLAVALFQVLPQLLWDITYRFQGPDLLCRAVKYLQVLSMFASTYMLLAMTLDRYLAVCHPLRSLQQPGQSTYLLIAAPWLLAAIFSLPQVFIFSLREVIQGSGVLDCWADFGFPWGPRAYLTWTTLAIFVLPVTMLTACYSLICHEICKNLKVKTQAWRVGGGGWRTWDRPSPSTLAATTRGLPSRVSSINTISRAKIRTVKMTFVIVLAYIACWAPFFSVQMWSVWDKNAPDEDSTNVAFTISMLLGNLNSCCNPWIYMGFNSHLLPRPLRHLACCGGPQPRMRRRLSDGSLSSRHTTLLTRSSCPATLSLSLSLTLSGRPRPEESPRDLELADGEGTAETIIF
Put plainly: Human vasopressin V1b cell-based receptor binding assay (3H-AVP competition). The settings on record: cells expressing human V1b receptor, 1 nM 3H-AVP. The source says:
Human vasopression VIb receptor-expressing cells. Human vasopressin receptor 1B (HV1B) cDNA (see, Lolait et al., “Extrapituitary expression of the rat V1b vasopressin receptor gene” Proc. Natl. Acad. Sci. USA. 92:6783-7 (1995); de Keyzer et al., “Cloning and characterization of the human V3(V1b) pituitary vasopressin receptor” FEBS Lett. 356:215-20 (1994); Sugimoto et al., “Molecular cloning and functional expression of a cDNA encoding the human V1b vasopressin receptor” J. Biol. Chem. 269:27088-92 (1994)) was inserted into a mammalian cell expression vector PCI-neo (Promega) at EcoR1 site. The recombinant plasmid carrying HV1B cDNA was identified from transformed E. Coli clones and used for the transfection of Chinese hamster ovary cell (CHO-K1, ATCC). Two micrograms of HV1B receptor DNA was introduced into 10^5 CHO cells cultured in 6-well plate, using Fugene-6 mediated transfection technique (Boehringer Mannheim). Twenty-four hrs post transfection, Cells were then cultured under selection of G-418 (0.25 mg/ml) supplemented to the culture medium. Three days later, limited dilution was carried out to obtain single cell clones in 96-well plates. […]
Human or rat vasopression V1a, V1b, and/or V2 cell-based receptor binding assay. […] Samples were counted in a liquid scintillation counter (Beckman LS3801). IC50 and Ki values were calculated using Prism Curve fitting software. […]

The target in another assay is T2, human V1a receptors (Homo sapiens, UniProt P37288).
T2 construct: expressed in transfected cells; host or cells: CHO cells
T2 sequence (P37288 whole entry): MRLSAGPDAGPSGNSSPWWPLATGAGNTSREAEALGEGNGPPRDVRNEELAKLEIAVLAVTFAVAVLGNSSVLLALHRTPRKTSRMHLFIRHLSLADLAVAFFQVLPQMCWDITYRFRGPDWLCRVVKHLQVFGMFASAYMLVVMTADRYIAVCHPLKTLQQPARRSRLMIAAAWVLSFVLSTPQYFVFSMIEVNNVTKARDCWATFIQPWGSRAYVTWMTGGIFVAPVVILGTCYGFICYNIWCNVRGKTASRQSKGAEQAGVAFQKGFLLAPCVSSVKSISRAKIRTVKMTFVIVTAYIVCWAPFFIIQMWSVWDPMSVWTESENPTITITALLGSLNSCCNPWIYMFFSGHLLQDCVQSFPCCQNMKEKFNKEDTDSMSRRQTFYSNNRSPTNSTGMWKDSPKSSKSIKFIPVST
Put plainly: Human vasopressin V1a cell-based receptor binding assay (3H-AVP competition). The procedure: Human or rat vasopression V1a, V1b, and/or V2 cell-based receptor binding assay. The V1a, V1b, and/or V2 cell lines (cells expressing either the human or rat V1a, V1b, and/or V2 receptors) were grown in alpha-MEM medium supplemented with 10% fetal bovine serum and 250 ug/ml G418 (Gibco, Grand Island, N.Y.) in 75 cm^2 flask. For competitive binding assay, hV1b cells were dissociated with enzyme-free, PBS based cell dissociation solution (Specialty Media, Phillipursburg, N.J.), following the manufacturer's protocol. Cells were plated into 12-well culture plates at a rate of one flask to 18 plates (rate should be adjusted according to the extent of confluency), and maintained in culture for 2-3 days. Culture medium was then removed, cells were washed once with 2 ml binding buffer (25 mM Hepes, 0.25% BSA, 1×DMEM, PH=7.0) at room temperature. To each well, 990 ul binding buffer containing 1 nM ^3H-AVP was added, and followed by the addition of 10 ul series diluted testing compounds or cold AVP, all dissolved in DMSO. […] Cells were incubated for 30 min at 37° C. in a moisturized incubator. Assay mixture was then removed and each well was washed three times with PBS (pH=7.4). […] Samples were counted in a liquid scintillation counter (Beckman LS3801). IC50 and Ki values were calculated using Prism Curve fitting software. […]

The term IC50 denotes the concentration that inhibits the measured activity by half. As usually defined, the Ki is the equilibrium dissociation constant of an inhibitor or competing ligand from its target. `O=C(C(CSCc1ccccc1)N1C(=O)C(N2C(=O)OCC2c2ccccc2)C1C=Cc1ccccc1)N1CCC(CCN2CCCCC2)CC1` [Example 9B, (2S)-(Benzylthiomethyl)-2-[3(S)-(4(S)-phenyloxazolidin-2-on-3-yl)-4(R)-(2-styryl)azetidin-2-on-1-yl]acetic acid N-[4-[2-(piperid-1-yl)ethyl]piperidin-1-yl]amide]: the IC50 on human V1b receptors (read-out: Human V1b Binding Affinity (IC50 (μM))) was found to be 1.1 µM; at human V1a receptors (cells expressing human V1a receptor, 1 nM 3H-AVP, read-out: Human V1a Binding Affinity (IC50 (nM))), 0.11 nM. Also, the Ki on human V1b receptors (read-out: Human V1b Binding Affinity (Ki (μM))) came to 0.69 µM; at human V1a receptors (FIG. 1, competitive binding assay in CHO cells transfected with human V1a receptor, read-out: human V1b binding affinity (Ki)) it was 0.07 nM.
